Measured values: publication PMC11494886, “Discovery and design of molecular glue enhancers of CDK12–DDB1 interactions for targeted degradation of cyclin K” (RSC Chemical Biology, 2024)
Where two headings read alike, the source gives them in different places.

Assays:
CDK12/cyclin K + DDB1 = biological target: T1, CDK12/cyclin K + DDB1 (Homo sapiens, UniProt Q16531+Q9NYV4, DEL396-705); test: Microscale thermophoresis, ternary complex formation; format: binding; settings: MST
T1 construct: The kinase domain of human CDK12 (Uniprot: Q9NYV4; a.a; 715–1050); GST (N, cleaved yes); made in house; host or cells: Spodoptera frugiperda SF9 insect cells (Bac-to-Bac); CDK12/cyclin K co-infected with S. cerevisiae CAK1
T1 sequence (Q16531 with tags, fused parts or gaps DEL396-705): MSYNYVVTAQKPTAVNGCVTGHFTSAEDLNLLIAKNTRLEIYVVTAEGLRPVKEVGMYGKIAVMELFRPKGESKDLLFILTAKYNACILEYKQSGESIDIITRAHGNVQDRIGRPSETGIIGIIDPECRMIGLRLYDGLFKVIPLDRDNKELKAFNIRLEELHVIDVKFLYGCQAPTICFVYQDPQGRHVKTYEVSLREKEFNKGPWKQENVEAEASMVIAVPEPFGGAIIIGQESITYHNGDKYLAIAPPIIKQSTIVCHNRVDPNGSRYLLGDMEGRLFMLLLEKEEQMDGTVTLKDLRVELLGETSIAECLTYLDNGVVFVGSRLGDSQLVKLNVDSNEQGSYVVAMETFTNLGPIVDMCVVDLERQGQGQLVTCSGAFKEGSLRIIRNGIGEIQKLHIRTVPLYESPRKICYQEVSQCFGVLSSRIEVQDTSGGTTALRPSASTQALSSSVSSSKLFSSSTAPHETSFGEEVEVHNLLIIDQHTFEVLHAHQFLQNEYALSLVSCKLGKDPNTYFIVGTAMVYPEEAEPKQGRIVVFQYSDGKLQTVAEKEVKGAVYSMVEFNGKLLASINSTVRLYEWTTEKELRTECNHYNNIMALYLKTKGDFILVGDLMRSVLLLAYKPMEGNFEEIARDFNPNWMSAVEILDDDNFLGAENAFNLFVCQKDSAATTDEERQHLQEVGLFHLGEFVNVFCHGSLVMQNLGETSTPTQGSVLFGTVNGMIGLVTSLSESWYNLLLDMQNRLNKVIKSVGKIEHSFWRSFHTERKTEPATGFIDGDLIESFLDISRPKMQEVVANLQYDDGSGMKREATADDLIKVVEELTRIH
T1 sequence (Q9NYV4 715-1050, stated change not applied): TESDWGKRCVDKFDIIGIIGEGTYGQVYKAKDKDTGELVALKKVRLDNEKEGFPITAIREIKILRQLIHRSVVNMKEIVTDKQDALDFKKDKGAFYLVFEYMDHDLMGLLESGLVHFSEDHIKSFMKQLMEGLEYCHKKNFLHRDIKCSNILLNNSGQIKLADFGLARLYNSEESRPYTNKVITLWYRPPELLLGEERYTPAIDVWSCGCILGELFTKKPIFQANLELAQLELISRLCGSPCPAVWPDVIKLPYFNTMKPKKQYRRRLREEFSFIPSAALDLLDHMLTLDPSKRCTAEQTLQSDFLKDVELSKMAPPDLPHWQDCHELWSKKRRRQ
T1 sequence (O75909 11-267 partner limits assumed): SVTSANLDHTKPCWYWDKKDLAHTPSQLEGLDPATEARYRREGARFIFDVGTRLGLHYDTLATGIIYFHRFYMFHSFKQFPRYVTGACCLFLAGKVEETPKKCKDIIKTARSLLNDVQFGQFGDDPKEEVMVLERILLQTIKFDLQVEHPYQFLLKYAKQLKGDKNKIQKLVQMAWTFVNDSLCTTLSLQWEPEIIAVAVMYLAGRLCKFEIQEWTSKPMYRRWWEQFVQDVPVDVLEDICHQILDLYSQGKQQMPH
Procedure: Finally, the capacity of small molecules to induce a ternary complex between CDK12/cyclin K and DDB1 in vitro was assessed by microscale thermophoresis (MST). Labeled DDB1ΔBPB was combined with purified CDK12/cyclin K, and fluorescence intensity was monitored with increasing compound concentrations.
Cell pellets were harvested 48 hours post infection via centrifugation and lysed in buffer A (50 mM Tris–HCl (pH 8.0), 200 mM NaCl, 10 mM imidazole, 0.5 mM tris(2-carboxyethyl) phosphine (TCEP)) supplemented with EDTA-free Pierce™ protease inhibitor tablet (Thermo Fisher Scientific). […] The concentrated protein at 2 mg mL^−1 was flash-frozen in liquid nitrogen and stored at −80 °C.
Full-length S. cerevisiae CAK1 (Uniprot: P43568) with an N-terminal His6 tag was subcloned into pFastBac 1 vector. […] The eluted CDK12/cyclin K complex was concentrated to 2 mg mL^−1, flash-frozen in liquid nitrogen and stored at −80 °C.
A protocol to assess ternary binding of molecular glues with CDK12/cycK and DDB1 by MST was established using published procedures for PROTAC interaction with bromodomains and E3 ubiquitin ligases.[38] His8-DDB1-ΔBPB was labeled with the MO-L018 Monolith™ His-tag Labeling Kit RED-tris-NTA 2nd Generation (NanoTemper Technologies) following the instruction manual. 100 nM dye was mixed with 200 nM DDB1 in 50 mM HEPES pH 7.5, 150 mM NaCl, 5% glycerol, 0.05% Tween, and incubated at room temperature for 30 min. […] MST traces were recorded using standard parameters: 5 s MST power off, 30 s MST power on and 5 s MST power off. Measurements were taken at −1 to 0 s (cold region) and 9–10 s (hot region). Data were analyzed using a fitting function derived from the law of mass action:1 [drawing 6] where f(c) is the fluorescence signal (Fnorm) at a given ligand concentration (c), B is Fnorm of fully liganded DDB1 at high ligand concentrations, U is Fnorm of DDB1 alone at low ligand concentrations, Kd is the dissociation constant or binding affinity, cT is the final concentration of DDB1 in the assay (Fig. 3G). For normalization, the data were first transformed using eqn (2) where y is the fraction bound, followed by fitting to eqn (3) (Fig. 5B–E).2 [drawing 7] 3 [drawing 8]

cyclin K [1] = test: Immunofluorescence of nuclear cyclin K in MDA-MB-231 cells; format: cell-based, human
Procedure: Cells were fixed with 4% PFA in PBS at room temperature, permeabilized with 0.1% Triton X-100 in PBS, and blocked with 3% BSA in PBS at room temperature. Cells were incubated with primary antibodies overnight at 4 °C, followed by incubation with Alexa-Fluor conjugated secondary antibodies for 1 hour at room temperature. Cell nuclei were stained using DAPI. Images were acquired on a confocal microscope (Leica). ImageJ and QuPath were used for image analysis.
Figure S8. Immunofluorescence staining for cyclin K degradation. MDA-MB-231 cells were
treated for 2 h with either DMSO or the indicated compounds (0.5 µM) . Cells were fixed and
Nuclei were stained with DAPI (blue). […]

MDA-MB-231 cells = test: CellTiter-Glo viability assay, WT MDA-MB-231; format: cell-based; settings: Homo sapiens; wild type MDA-MB-231; read-out: EC50 (WT) cell viability
Excerpt: MDA-MB-231 (human triple-negative breast cancer cells) and HEK293T (human embryonic kidney cells) were purchased from the American type culture collection (ATCC) and maintained in Dulbecco's modified Eagle's medium (DMEM) (Gibco) supplemented with 10% (v/v) heat-inactivated fetal bovine serum (FBS) (Gibco) and penicillin/streptomycin (100 U mL^−1 each). HiBiT-CCNK KI A549 cells, purchased from Promega, were maintained in F12 medium supplemented with 10% (v/v) heat-inactivated fetal bovine serum (FBS) (Gibco) and penicillin/streptomycin (100 U mL^−1 each). DDB1-knockdown MDA-MB-231 and DDB1-knockdown HEK293T cell lines were maintained in the same media formulation as their corresponding wild-type cell lines. All cell lines were cultured at 37 °C in an incubator with CO2 levels maintained at 5%.
(§1) Cell viability was measured by Cell Titer Glo assay kit (Promega, USA). EC50 was determined from the nonlinear regression and a four-parameter algorithm on the GraphPad Prism software.

[2] = system: MDA-MB-231DDB1-shRNA cells; test: CellTiter-Glo viability assay, MDA-MB-231 DDB1-shRNA; format: cell-based, human; settings: Homo sapiens; MDA-MB-231 DDB1-shRNA; read-out: EC50 (DDB1 shRNA) cell viability
Excerpt: For stable genetic knock-down of DDB1 in cells, predesigned and validated TRC2-pLKO-puro shRNA plasmids for DDB1 (TRCN0000082855 and TRCN0000082856), and a non-targeting shRNA plasmid (SHC001) were obtained from Millipore Sigma. All plasmids were purified using the Qiagen Maxiprep kit (Qiagen). FuGENE HD 6 transfection reagent (Promega) was used for transfection of plasmids and lentiviral gene/shRNA constructs. Mission lentiviral packaging mix (Millipore Sigma) was used to package lentiviral plasmids into lentiviral particles in HEK293T cells, as per manufacturer's protocols. The resultant virus was concentrated using Vivaspin 20 centrifugal concentrators (Sartorius). MDA-MB-231 and HEK293T cells were transduced with lentivirus. Stable knocked down DDB1 (shDDB1-231 and shDDB1-HEK293T) cells were generated after selection with the antibiotic puromycin, and genetic knockdown was confirmed by western blotting.
as §1

cyclin K [3] = test: Immunoblot of cyclin K levels in MDA-MB-231 cells; format: cell-based, human; settings: SR-4835 500 nM, SR-4784 1-2 μM 2 hours, SR-4784-PAP 2 μM 2 hours
Procedure: THZ531 was used as a negative control as it is known to make a covalent bond with Cys1039 in a C-terminal extension of the kinase domain, thereby preventing this helix-loop-helix (HLH)-like fold from binding in a cleft between the DDB1 BPA and BPC domains (Fig. 1B, right panels). […] An immunofluorescence-based assay developed for visualizing loss of nuclear cyclin K also confirmed the above observations (Fig. 1H and Fig. S1, ESI ^†).
Total cell lysates were prepared using RIPA lysis buffer (Millipore Sigma) supplemented with protease and phosphatase inhibitors (Roche). Protein concentrations were estimated using the BCA protein assay kit (Pierce, Thermo Fisher Scientific). Equal amounts of proteins were separated using NuPAGE 4–12% Bis-Tris gels (Thermo Fisher Scientific). For CLICK chemistry pulldown experiments, proteins in the eluates were resolved using 3–8% Tris–acetate gels (Thermo Fisher Scientific). Proteins were transferred to nitrocellulose membranes using NuPAGE transfer buffer (Thermo Fisher Scientific). Membranes were blocked in LI-COR blocking buffer for 1 hour at room temperature and then probed with primary antibodies diluted in the same blocking buffer overnight at 4 °C. To detect the primary antibodies, membranes were incubated with IR-680 or IR-800 conjugated secondary antibodies (LI-COR) diluted in LI-COR blocking buffer at room temperature for 1 hour. Washes with 0.01% Tween-phosphate buffer were performed after primary and secondary antibody incubation steps. Signals from the membrane were recorded by scanning on a LI-COR Odyssey imager. Bands were quantified using Image Studio Lite (LI-COR Biosciences) or the ImageJ program.
To visualize the degradation of cyclin K, total cell lysates were subjected to SDS-PAGE and western blotting.

[4] = labeled DDB1 + CDK12/cyclin K, run #1, read-out: Kd ternary complex formation, replicate #1
[5] = labeled DDB1 + CDK12/cyclin K, run #2, read-out: Kd ternary complex formation, replicate #2
[6] = labeled DDB1 + CDK12/cyclin K, run #3, read-out: Kd ternary complex formation, replicate #3
[7] = labeled DDB1ΔBPB 10 nM + CDK12/cyclin K 1000 nM, mean of replicates, read-out: Kd ternary complex formation (average)

SMILES	Kd (CDK12/cyclin K + DDB1; [4])	Kd (CDK12/cyclin K + DDB1; [5])	Kd (CDK12/cyclin K + DDB1; [6])	Kd (CDK12/cyclin K + DDB1; [7])	EC50 (MDA-MB-231 cells)	EC50 [2]	cyclin K nuclear intensity compared to control (cyclin K [1]; MDA-MB-231 cells, 0.5 µM, 2 h)	cyclin K degradation (immunoblot) (cyclin K [3])	ability to induce ternary complex (CDK12/cyclin K + DDB1; labeled DDB1ΔBPB + CDK12/cyclin K)	cyclin K nuclear intensity compared to control (cyclin K [1])
C#CCCC1(CCC(=O)N2CCN(c3nc(NCc4nc5cc(Cl)c(Cl)cc5[nH]4)c4ncn(-c5cnn(C)c5)c4n3)CC2)N=N1 [SR-4784-PAP, 3-(3-(But-3-yn-1-yl)-3H-diazirin-3-yl)-1-(4-(6-(((5,6-dichloro-1H-benzo[d]imidazol-2-yl)methyl)amino)-9-(1-methyl-1H-pyrazol-4-yl)-9H-purin-2-yl)piperazin-1-yl)propan-1-one]	–	–	–	–	–	–	–	degraded cyclin K in a proteasome-dependent manner	–	–
CCc1cnn2c(NCc3ccc[n+]([O-])c3)cc(N3CCCC[C@H]3CCO)nc12 [dinaciclib, reference compound]	–	–	–	–	–	–	–	–	lacked the ability to induce a ternary complex	not affected

More lines, main results first:

Kd (CDK12/cyclin K + DDB1; [4])	Kd (CDK12/cyclin K + DDB1; [5])	Kd (CDK12/cyclin K + DDB1; [6])	Kd (CDK12/cyclin K + DDB1; [7])	EC50 (MDA-MB-231 cells)	EC50 [2]	SMILES	cyclin K nuclear intensity compared to control (cyclin K [1]; MDA-MB-231 cells, 0.5 µM, 2 h)	cyclin K degradation (immunoblot) (cyclin K [3])	ability to induce ternary complex (CDK12/cyclin K + DDB1; labeled DDB1ΔBPB + CDK12/cyclin K)	cyclin K nuclear intensity compared to control (cyclin K [1])
409 ± 117 nM	347 ± 98.3 nM	528 ± 295 nM	428 nM	–	–	Cn1cc(-c2cnn3c(NCc4nc5cc(Cl)c(Cl)cc5[nH]4)nc(N4CCOCC4)nc23)cn1 [MR-1014, N-((5,6-Dichloro-1H-benzo[d]imidazol-2-yl)methyl)-8-(1-methyl-1H-pyrazol-4-yl)-2-morpholinopyrazolo[1,5-a][1,3,5]triazin-4-amine]	reduced	–	–	–
24.3 ± 9 nM	31.3 ± 17.4 nM	37.6 ± 23.3 nM	31.1 ± 6.7 nM	–	–	Clc1cccc2nc(CNc3cc(N4CCNCC4)nn4c(-c5ccsc5)cnc34)[nH]c12 [MR-1110, N-((7-Chloro-1H-benzo[d]imidazol-2-yl)methyl)-6-(piperazin-1-yl)-3-(thiophen-3-yl)imidazo[1,2-b]pyridazin-8-amine]	reduced	–	–	–
137 ± 33.3 nM	122 ± 54.6 nM	152 ± 63.7 nM	137 ± 15 nM	–	–	CN1CC=C(c2cn3c(-c4cnn(C(F)F)c4)cnc3c(NCc3nc4cc(Cl)c(Cl)cc4[nH]3)n2)CC1 [MR-1187, N-((5,6-Dichloro-1H-benzo[d]imidazol-2-yl)methyl)-3-(1-(difluoromethyl)-1H-pyrazol-4-yl)-6-(1-methyl-1,2,3,6-tetrahydropyridin-4-yl)imidazo[1,2-a]pyrazin-8-amine]	reduced	–	–	–
–	–	–	–	263 nM	796 nM	Cn1cc(-n2cnc3c(NCc4nc5cc(Cl)c(Cl)cc5[nH]4)nc(N4CCNCC4)nc32)cn1 [SR-4784, N-((5,6-dichloro-1H-benzo[d]imidazol-2-yl)methyl)-9-(1-methyl-1H-pyrazol-4-yl)-2-(piperazin-1-yl)-9H-purin-6-amine]	–	induced cyclin K degradation	–	–
